Assay results: PubChem BioAssay (NCI)
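A five-concentration, 48-hour dose response in 96-well plates underlies each endpoint, interpolated linearly between surrounding concentrations. Here, GI50 denotes the concentration required for 50% inhibition of growth. TGI is the concentration that stops growth completely.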

What was measured:
Assay in all cases: NCI anticancer screen, dose series, 48 h
[1] = test system: K-562 leukemia
[2] = test system: A498 renal
[3] = test system: HOP-92 NSCLC
[4] = test system: 786-0 renal
[5] = test system: ACHN renal
[6] = test system: SK-OV-3 ovarian
[7] = test system: RPMI-8226 leukemia
[8] = test system: OVCAR-3 ovarian
[9] = test system: SF-268 CNS
[10] = test system: BT-549 breast

With `COc1ccc(C(=O)NCCN(C)C)c2nc3ccccc3nc12` the TGI [1] was 5.72 µM, the TGI [2] was 16.3 µM and the TGI [3] was > 27.4 µM. The TGI [4] was > 59.9 µM, the TGI [5] was > 100 µM and the TGI [6] was > 63.2 µM. For the same compound, the TGI [7] was > 100 µM and the TGI [8] was > 29.3 µM.
In the case of `O=c1c2cc(Br)ccc2nc(CCl)n1-c1ccc(O)c([N+](=O)[O-])c1`, the TGI [1] is reported as 48.5 µM, the TGI [2] is reported as 90.2 µM and the TGI [3] is reported as 56.6 µM. It also gave a TGI [9] of 44 µM, a TGI [4] of 31.8 µM and a TGI [5] of 79.9 µM. It also gave a TGI [6] of 93.5 µM, a TGI [7] of 47.8 µM and a TGI [8] of 33 µM.
`CN(C)CCNC(=O)Cn1ccc(=O)c2c([N+](=O)[O-])cccc21` was tested, and the TGI [1] was > 100 µM, the TGI [2] was > 100 µM and the TGI [9] was > 100 µM. For the same compound, the TGI [10] was > 100 µM, the TGI [4] was > 100 µM and the TGI [5] was > 100 µM. The TGI [6] was > 100 µM, the TGI [7] was > 100 µM and the TGI [8] was > 100 µM.
With `Cc1nc(C(N)=S)sc1C(=O)/C=C/c1c(O)ccc2ccccc12` the TGI [1] was > 64.7 µM, the TGI [2] was > 100 µM and the TGI [3] was > 100 µM. The TGI [9] was > 100 µM, the TGI [4] was > 100 µM and the TGI [5] was > 100 µM. For the same compound, the TGI [6] was > 100 µM, the TGI [7] was > 93.5 µM and the TGI [8] was > 84.3 µM.
`COC(=O)C(/C(=N\O)C(=O)Nc1cccc(Cl)c1C)c1cnc2ccccc2n1` (stereo unspecified) was tested, and the TGI [1] was > 100 µM, the TGI [2] was > 100 µM and the TGI [3] was > 100 µM. The TGI [9] was > 100 µM, the TGI [10] was > 100 µM and the TGI [4] was > 100 µM. For the same compound, the TGI [5] was > 100 µM, the TGI [6] was > 100 µM and the TGI [8] was > 100 µM.
`CCOC(=O)C1SC(=Nc2ccc(Cl)cc2)N=C1C` (stereo unspecified) showed a TGI [1] of 43.3 µM, a TGI [2] of 41.3 µM and a TGI [3] of 29.6 µM. The TGI [9] was 34 µM, the TGI [4] was 30.7 µM and the TGI [5] was 49.7 µM. For the same compound, the TGI [7] was 82.3 µM and the TGI [8] was 47.8 µM.
`O=[N+]([O-])c1ccc(Sc2c3ccccc3nc3cc(Cl)ccc23)cc1` was tested, and the GI50 [1] was > 100 µM, the TGI [1] was > 100 µM and the GI50 [2] was > 100 µM. For the same compound, the TGI [2] was > 100 µM, the TGI [3] was > 100 µM and the GI50 [9] was > 100 µM. The TGI [9] was > 100 µM, the GI50 [4] was > 100 µM and the TGI [4] was > 100 µM. For the same compound, the GI50 [6] was > 100 µM, the TGI [6] was > 100 µM and the TGI [7] was > 100 µM. The GI50 [8] was > 100 µM and the TGI [8] was > 100 µM.
`C[N+](C)(C)CC1CCCCC1O` (stereo unspecified) was tested, and the TGI [2] was > 100 µM, the TGI [3] was > 100 µM and the TGI [9] was > 100 µM. The TGI [4] was > 100 µM, the TGI [5] was > 100 µM and the TGI [6] was > 100 µM. For the same compound, the TGI [7] was > 100 µM and the TGI [8] was > 100 µM.
With `CCOC(=O)NC(=O)c1cn(CCN2CCN(C(=O)CCCCCCCCCCC(=O)N3CCN(CCn4cc(C(=O)NC(=O)OCC)c(=O)[nH]c4=O)CC3)CC2)c(=O)[nH]c1=O` the TGI [1] was > 100 µM, the TGI [2] was > 100 µM and the TGI [3] was > 100 µM. The TGI [9] was > 100 µM, the TGI [4] was > 100 µM and the TGI [5] was > 100 µM. For the same compound, the TGI [6] was > 100 µM, the TGI [7] was > 100 µM and the TGI [8] was > 100 µM.
With `CSc1nnc(COc2ccc(Cl)cc2)o1` the TGI [2] was > 100 µM, the TGI [9] was > 100 µM and the TGI [4] was > 100 µM. The TGI [5] was > 100 µM, the TGI [6] was > 100 µM and the TGI [8] was > 100 µM.
For `COc1ccc(/C(=N\NC(=S)NN)C(c2ccc(OC)cc2)C2C(=O)Oc3ccccc32)cc1` (stereo unspecified), the GI50 [1] was > 100 µM, the TGI [1] was > 100 µM and the GI50 [3] was > 100 µM. For the same compound, the TGI [3] was > 100 µM, the GI50 [9] was > 100 µM and the TGI [9] was > 100 µM. For the same compound, the GI50 [4] was > 100 µM, the TGI [4] was > 100 µM and the GI50 [5] was > 100 µM. For the same compound, the TGI [5] was > 100 µM, the GI50 [6] was > 100 µM and the TGI [6] was > 100 µM. For the same compound, the GI50 [7] was > 100 µM, the TGI [7] was > 100 µM and the GI50 [8] was > 100 µM. For the same compound, the TGI [8] was > 100 µM.
`Nc1ncnc2c1ncn2CC(O)CO` (stereo unspecified) was tested, and the TGI [1] was > 100 µM, the TGI [2] was > 100 µM and the TGI [3] was > 100 µM. For the same compound, the TGI [9] was > 100 µM, the TGI [4] was > 100 µM and the TGI [6] was > 100 µM. The TGI [7] was > 100 µM and the TGI [8] was > 100 µM.
With `O=c1oc2ccccc2[n+]([O-])c1-c1ccccc1` the TGI [1] was > 100 µM, the TGI [2] was > 100 µM and the TGI [3] was > 100 µM. The TGI [9] was > 100 µM, the TGI [4] was > 100 µM and the TGI [5] was > 100 µM. The TGI [6] was > 100 µM, the TGI [7] was > 100 µM and the TGI [8] was > 100 µM.
`COc1cnc2c(c1)C(=O)c1c-2n(CCCN2CCN(C)CC2)c(=O)c2cc([N+](=O)[O-])ccc12` showed a GI50 [1] of 0.154 µM, a TGI [1] of 0.395 µM and a GI50 [3] of 1.82 µM. The TGI [3] was 4.37 µM, the GI50 [9] was 0.206 µM and the TGI [9] was 1.64 µM. The GI50 [4] was 1.64 µM, the TGI [4] was 3.13 µM and the GI50 [6] was 1.8 µM. The TGI [6] was 3.59 µM, the GI50 [7] was 0.226 µM and the TGI [7] was 0.917 µM. It also gave a GI50 [8] of 0.171 µM and a TGI [8] of 0.359 µM.
`CCCCN(CC)CC(C(C)=O)c1c(O)c2ccccc2oc1=O` (stereo unspecified) was tested, and the TGI [1] was > 100 µM, the TGI [2] was > 100 µM and the TGI [9] was > 100 µM. The TGI [4] was > 100 µM, the TGI [5] was > 100 µM and the TGI [6] was > 100 µM. The TGI [7] was > 100 µM and the TGI [8] was > 100 µM.
`CCCCn1c(-c2ccc(C(=O)O/N=C(\N)c3ccc4c(c3)OCO4)cc2)nc(-c2ccccc2)c1-c1ccccc1` gave a GI50 [2] of 0.306 µM, a TGI [2] of 2.82 µM and a GI50 [9] of 1.97 µM. For the same compound, the TGI [9] was 4.37 µM, the GI50 [10] was 2.61 µM and the TGI [10] was 7.84 µM. For the same compound, the GI50 [4] was 2.5 µM, the TGI [4] was 6.15 µM and the GI50 [5] was 1.35 µM. For the same compound, the TGI [5] was 2.81 µM, the GI50 [6] was 7.13 µM and the TGI [6] was > 100 µM.
`C=C(C)C1C/C=C(/C)CCCC2(CCC3=C(CC(C(=C)C)C/C=C(/C)CCC3)O2)C(=O)C1` (stereo unspecified) was tested, and the TGI [1] was > 100 µM, the TGI [2] was > 100 µM and the TGI [3] was > 100 µM. For the same compound, the TGI [9] was > 100 µM, the TGI [4] was > 100 µM and the TGI [5] was > 100 µM. For the same compound, the TGI [6] was > 100 µM and the TGI [7] was > 100 µM.
With `Cc1ccccc1C(=O)N1CCN(C(=O)c2ccccc2C)CC1` the TGI [1] was > 100 µM, the TGI [2] was > 100 µM and the TGI [3] was > 100 µM. For the same compound, the TGI [9] was > 100 µM, the TGI [4] was > 100 µM and the TGI [5] was > 100 µM. For the same compound, the TGI [6] was > 100 µM, the TGI [7] was > 100 µM and the TGI [8] was > 100 µM.
In the case of `N#Cc1ccc(NC(=O)C(CC(=O)OCc2ccccc2)NC(=O)OCc2ccccc2)cc1` (stereo unspecified), the GI50 [3] is reported as > 100 µM, the TGI [3] is reported as > 100 µM and the GI50 [4] is reported as > 100 µM. For the same compound, the TGI [4] was > 100 µM, the GI50 [5] was > 100 µM and the TGI [5] was > 100 µM. The GI50 [6] was > 100 µM, the TGI [6] was > 100 µM and the GI50 [7] was > 100 µM. For the same compound, the TGI [7] was > 100 µM.
In the case of `CCCCN(CCCC)C(=O)/C(CC(=O)c1cccc2ccccc12)=N\NC(=O)c1cc2ccccc2cc1O`, the TGI [3] is reported as 56.8 µM, the TGI [9] is reported as 70.9 µM and the TGI [4] is reported as 77.3 µM. For the same compound, the TGI [5] was 78.7 µM, the TGI [7] was 21.5 µM and the TGI [8] was 53.3 µM.
With `COc1ccc(CN2CCC/C=C/CC(Cl)(Cl)C2=O)cc1` the TGI [1] was > 100 µM, the TGI [2] was 73.7 µM and the TGI [3] was 62.5 µM. The TGI [9] was > 100 µM, the TGI [4] was > 100 µM and the TGI [5] was 78.8 µM. The TGI [6] was > 100 µM, the TGI [7] was 69.4 µM and the TGI [8] was > 100 µM.
For `O=C(/C=C/c1ccccc1)CC(=O)CCC(=O)Nc1ccc(Cl)cc1`, the TGI [1] was > 100 µM, the TGI [2] was > 100 µM and the TGI [9] was > 100 µM. The TGI [4] was > 100 µM, the TGI [5] was > 100 µM and the TGI [6] was > 100 µM. The TGI [7] was > 100 µM and the TGI [8] was > 100 µM.
